Patent publication US20130281512A1, “AGENTS FOR TREATING DISORDERS INVOLVING MODULATION OF RYANODINE RECEPTORS” (LES LABORATOIRES SERVIER, priority 2012, published 2013)

How the values were obtained:
rat hepatocytes = assay: Metabolic stability in rat hepatocytes; format: in vitro ADME; settings: for Clint: 6.00E+05 cells/ml, 10^-7 M
Experimental: (§1) Compound solubilization: Stock solutions were made in DMSO, and working solutions in William medium containing 1/10 rat plasma or 1/4 human plasma.
(§2) Metabolic stability determination: Compounds were incubated at 10^−7 M with isolated hepatocytes (6E+5 cells/ml for rat hepatocytes and 4E+5 cells/ml for human hepatocytes) at 37° C. in plasma from the same species diluted in Wiliams medium (1/10 dilution for rat and 1/4 dilution for human). Sampling times were performed at 0, 10, 20, 30, 60 and 120 min and enzymatic reaction stopped with methanol (v/v). Proteins were precipitated by centrifugation and the supernatant was analyzed by LC/MS/MS. Clint expressed as ml/min/g protein were calculated as for hepatic microsomes using a ratio of 0.134 mg protein/ml for 4E+5 cells/ml for human and 0.201 mg protein/ml for 6E+5 cells/ml for rat. The presence of the reference drug and the potential metabolite was checked by LC/MS/MS during the assay in each sample.

[1] = Metabolic stability in rat hepatic microsomes (Clint, predicted MF %); format: in vitro ADME; settings: for Clint_mic rat (in vitro intrinsic clearance): 10^-7 M, 0.33 mg protein/ml, NADPH; for MF mic % (metabolic bioavailability): predicted from Clint assuming total absorption
Experimental: (§3) Compound solubilization: Stock solutions were made in DMSO, and working solutions in water containing 1 mg/ml BSA.
(§4) Prediction of metabolic bioavailability: Metabolic bioavailability predictions (MF %) were based on in vitro metabolic stability measurements with hepatic microsomes assuming total absorption. Briefly, unchanged drugs were quantified by LC-MS-MS following incubation (10^−7M) with rat and human hepatic microsomes (0.33 mg protein/ml) after 0, 5, 15, 30 and 60 min of incubation in presence of NADPH (1 mM). Enzymatic reaction was stopped with methanol (v/v) and proteins were precipitated by centrifugation. The in vitro intrinsic clearances (Clint_mic) expressed as ml/min/g protein were the slope (after LN linearization) of the unchanged drug remaining concentration versus incubation time. In vitro Clint were then scaled up to in vivo whole body (vivoClint) using 0.045 mg prot/kg of liver and liver weight of 11 g for the rat and 1.2 kg for Man.

[2] = Metabolic stability in human hepatic microsomes (Clint, predicted MF %); format: in vitro ADME; settings: for Clint_mic man (in vitro intrinsic clearance): 10^-7 M, 0.33 mg protein/ml, NADPH; for MF mic % (metabolic bioavailability): predicted from Clint assuming total absorption
Experimental: as §3, §4

[3] = Metabolic stability in mouse microsomes (% remaining); format: in vitro ADME
Experimental: (§5) 0.1M Tris HCl buffer at pH 7.4 containing 5 mM EDTA.
(§6) To a 50 mL falcon tube containing 2.79 mL of dilution buffer were added 0.429 mL of NADPH-regenerating soln. A and 0.079 mL of NADPH-regenerating soln. B […]
(§7) […] A 50 mL falcon tube containing 3.32 mL of dilution buffer was prewarmed at 37° C. for 15 min. (at least 10 min.) 0.178 mL of microsome (24.6 mg/mL) were added to the prewarmed dilution buffer. The protein concentration of this microsome preparation was 1.25 mg/mL.
(§8) Sample (Test Compound)—Original and Intermediate Stock Solutions:
(§9) 100 μM intermediate solution of the test compound from the original stock solution were prepared using the dilution buffer. A 5 μM solution was prepared by diluting the 100 μM intermediate solution using dilution buffer.
(§10) (The experiments were conducted in 1.5 mL eppendorf micro centrifuge tubes) 0 minutes incubation. Procedure: a. Add 100 μL of prewarmed microsomes b. Add 50 μL of 5 μM solution of the test compound. c. Add 500 μL of cold stop solution (ice cold Methanol) d. Add 100 μL of NADPH cofactor solution to the eppendorf. a. Vortex mix the eppendorf. […]
(§11) b. Add 100 μL of NADPH cofactor solution to the eppendorf. c. Add 50 μL of 5 μM solution of the test compound. d. Add 100 μL of prewarmed microsomes e. Incubate the eppendorf at 37° C. 300 rpm for ‘t’ min. on a thermomixer. f. Remove the eppendorf from thermomixer g. Add 500 μL of cold stop solution (ice cold Methanol) h. Vortex mix the eppendorf.
(§12) Both the ‘0’ and ‘t’ minutes incubated samples were centrifuged at 15, 000 rcf at 4° C. for 15 min. 500 μL of the supernatant solution was removed and subject it to LC/MS analysis (SIM—Selected Ion Monitoring) […]
(§13) Results are expressed as % test compound remaining=(MS Area response of T min sample/MS Area response of ‘0’ min sample)*100. The MS area used is an average of duplicate injections.
(§14) Time points=0, 15, 30 and 60 min. for each test compound
(§15) 2 μM Imipramine—5 min. and 2 μM Imipramine—15 min. incubation was used as a positive control for the rat and mouse liver microsome stability experiments.

[4] = Metabolic stability in rat microsomes (% remaining); format: in vitro ADME
Experimental: as §5, §6, §7, §8, §9, §10, §11, §12, §13, §14, §15

human hepatocytes = assay: Metabolic stability in human hepatocytes; format: in vitro ADME; settings: for Clint: 4.00E+05 cells/ml, 10^-7 M
Experimental: as §1, §2

[5] = system: ischemia-reperfusion induced heart failure; assay: Model of chronic post-ischemic heart failure in rat (ischemia-reperfusion injury); format: in vivo; settings: 5 mg/kg/d in drinking water, 3 months
Experimental: Chronic heart failure was induced in male wistar rats (224-240 g, 10-11 weeks of age) by ischemia-reperfusion (I/R) injury. For I/R protocol, the left anterior descending (LAD) coronary artery was occluded for 1 h. Drug treatment (5 mg/kg/d or 10 mg/kg/d in drinking water) was initiated 1 week after reperfusion and was maintained for a 3 month study period. […] Cardiac specimens were also analyzed to assess hypertrophy and collagen content. The study design is depicted in FIG. 3. Experiments were performed in a blinded manner. On parameters measured over time, comparison of Sham versus Vehicle and comparison of drug treatments are analyzed by 2 way ANOVAs with repeated measures. On parameters measured at sacrifice and morphometry, comparisons of Sham versus Vehicle are analyzed by t-test and comparisons of drug treatments by 1-way ANOVA followed by Dunnett test.

| Compound | MF rat % (rat hepatocytes) | Clint (rat hepatocytes) | Class (metabolic bioavailability) [1] | Clint_mic rat (in vitro intrinsic clearance) [1] | MF mic % (metabolic bioavailability) [1] | Class (metabolic bioavailability) [2] | Clint_mic man (in vitro intrinsic clearance) [2] | MF mic % (metabolic bioavailability) [2] | % remaining ([3]; 15 min) | % remaining ([3]; 30 min) | % remaining ([3]; 1 h) | % remaining ([4]; 15 min) | % remaining ([4]; 30 min) | % remaining ([4]; 1 h) | MF human % (human hepatocytes) | Clint (human hepatocytes) | systolic and diastolic cardiac function [5] |
| --- | --- | --- | --- | --- | --- | --- | --- | --- | --- | --- | --- | --- | --- | --- | --- | --- | --- |
| COc1ccc2c(c1)CN(Cc1ccc(O)cc1)CCS2 [B] | 3% | 1334 ml/min/gprot | very low | 823 ml/min/gprot | 5% | very low | 285 ml/min/gprot | 6% | 0% | 0% | 0% | 1% | 0% | 0% | 3% | 693 ml/min/gprot |  |
| COc1ccc2c(c1)CN(CC(=O)O)CCS2 [A] |  |  |  |  |  |  |  |  |  |  |  |  |  |  |  |  | failed to improve |
| COc1ccc2c(c1)CN(Cc1ccccc1)CCS2 [Compound C] | 2% | 2610 ml/min/gprot | very low | 1926 ml/min/gprot | 2% | very low | 1326 ml/min/gprot | 2% | 0% | 0% | 0% | 0% | 0% | 0% | 16% | 100 ml/min/gprot |  |
